Measurements reported in patent publication US10335503B2, “Compound that specifically binds to AMPA receptor” (Public University Corporation Yokohama City University, priority 2015, dated 2019).

How the values were obtained:
Details in all cases: K-2 at 1 × 10^−7 mol/L
Vasopressin V1B = Vasopressin V1B (Homo sapiens, UniProt P47901); assay: Receptor binding panel: Vasopressin V1B
Neurokinin NK3 = Neurokinin NK3 (Homo sapiens, UniProt P29371); assay: Receptor binding panel: Neurokinin NK3
Na channel site 2 = assay: Receptor binding panel: Na channel site 2
Neurokinin NK1 = Neurokinin NK1 (Homo sapiens, UniProt P25103); assay: Receptor binding panel: Neurokinin NK1
[1] = target: Norepinephrine transporter (Homo sapiens, UniProt P23975); assay: Receptor binding panel: Norepinephrine transporter
Serotonin transporter = Serotonin transporter (Homo sapiens, UniProt P31645); assay: Receptor binding panel: Serotonin transporter
Serotonin transporter, sequence (P31645 whole entry): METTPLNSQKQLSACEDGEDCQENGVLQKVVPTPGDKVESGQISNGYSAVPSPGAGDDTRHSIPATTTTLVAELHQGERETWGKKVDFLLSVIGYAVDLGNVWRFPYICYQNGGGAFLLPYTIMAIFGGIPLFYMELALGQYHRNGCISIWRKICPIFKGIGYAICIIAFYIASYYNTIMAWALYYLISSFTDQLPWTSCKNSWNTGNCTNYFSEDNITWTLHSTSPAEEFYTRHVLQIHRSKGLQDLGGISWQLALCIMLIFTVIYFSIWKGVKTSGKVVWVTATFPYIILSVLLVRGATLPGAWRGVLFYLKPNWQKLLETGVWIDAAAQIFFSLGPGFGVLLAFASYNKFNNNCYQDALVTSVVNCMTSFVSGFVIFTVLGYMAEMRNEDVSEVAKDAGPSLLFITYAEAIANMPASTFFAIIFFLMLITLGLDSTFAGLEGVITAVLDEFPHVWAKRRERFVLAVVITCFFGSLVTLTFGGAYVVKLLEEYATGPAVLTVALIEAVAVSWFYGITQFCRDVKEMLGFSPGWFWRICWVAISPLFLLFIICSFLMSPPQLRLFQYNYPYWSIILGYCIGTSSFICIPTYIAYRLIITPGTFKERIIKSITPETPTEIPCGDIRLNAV

Dopamine D2 short = Dopamine D2 short (Homo sapiens, UniProt P14416); assay: Receptor binding panel: Dopamine D2 short
Dopamine D2 short, sequence (P14416 1-414 isoform P14416-2): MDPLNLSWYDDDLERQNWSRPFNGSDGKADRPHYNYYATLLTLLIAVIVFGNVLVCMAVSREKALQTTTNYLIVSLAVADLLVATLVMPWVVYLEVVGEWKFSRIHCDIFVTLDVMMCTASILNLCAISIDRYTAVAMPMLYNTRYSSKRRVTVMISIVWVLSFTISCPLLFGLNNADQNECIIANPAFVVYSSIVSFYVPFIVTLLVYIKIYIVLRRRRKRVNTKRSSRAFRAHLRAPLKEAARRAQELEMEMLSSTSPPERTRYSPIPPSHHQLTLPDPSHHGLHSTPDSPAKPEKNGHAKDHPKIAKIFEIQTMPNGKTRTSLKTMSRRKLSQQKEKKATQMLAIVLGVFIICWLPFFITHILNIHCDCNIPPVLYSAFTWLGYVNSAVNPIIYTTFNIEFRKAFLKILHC

Neurokinin NK2 = Neurokinin NK2 (Homo sapiens, UniProt P21452); assay: Receptor binding panel: Neurokinin NK2
Neurokinin NK2, sequence (P21452 whole entry): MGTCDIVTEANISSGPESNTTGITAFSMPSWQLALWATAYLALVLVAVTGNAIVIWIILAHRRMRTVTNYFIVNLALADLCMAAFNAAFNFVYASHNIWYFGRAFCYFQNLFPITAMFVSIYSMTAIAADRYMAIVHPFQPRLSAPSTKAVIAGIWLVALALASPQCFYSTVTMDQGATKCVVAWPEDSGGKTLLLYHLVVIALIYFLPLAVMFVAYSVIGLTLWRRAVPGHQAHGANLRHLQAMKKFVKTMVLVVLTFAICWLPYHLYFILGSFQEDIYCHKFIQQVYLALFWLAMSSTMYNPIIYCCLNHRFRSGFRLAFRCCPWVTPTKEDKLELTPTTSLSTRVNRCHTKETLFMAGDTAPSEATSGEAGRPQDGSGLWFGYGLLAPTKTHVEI

[2] = tested on: Glutamate (NMDA glycine site); assay: Receptor binding panel: Glutamate (NMDA glycine site)
Estrogen = assay: Receptor binding panel: Estrogen
VIP 1 = VIP 1 (Homo sapiens, UniProt P32241); assay: Receptor binding panel: VIP 1
VIP 1, sequence (P32241 31-457): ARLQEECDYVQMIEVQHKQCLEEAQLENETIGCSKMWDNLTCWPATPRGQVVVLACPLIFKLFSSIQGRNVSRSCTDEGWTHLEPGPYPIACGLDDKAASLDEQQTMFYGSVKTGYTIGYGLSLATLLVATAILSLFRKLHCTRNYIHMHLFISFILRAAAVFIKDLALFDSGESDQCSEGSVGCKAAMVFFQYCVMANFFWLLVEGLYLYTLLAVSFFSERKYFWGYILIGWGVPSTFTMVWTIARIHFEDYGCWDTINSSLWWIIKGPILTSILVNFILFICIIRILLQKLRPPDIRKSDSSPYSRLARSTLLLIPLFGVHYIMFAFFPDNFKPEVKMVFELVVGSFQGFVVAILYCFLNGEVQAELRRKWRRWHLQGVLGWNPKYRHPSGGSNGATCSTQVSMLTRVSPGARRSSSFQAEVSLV

Sigma σ1 = Sigma σ1 (Homo sapiens, UniProt Q99720); assay: Receptor binding panel: Sigma σ1
Sigma σ1, sequence (Q99720 whole entry): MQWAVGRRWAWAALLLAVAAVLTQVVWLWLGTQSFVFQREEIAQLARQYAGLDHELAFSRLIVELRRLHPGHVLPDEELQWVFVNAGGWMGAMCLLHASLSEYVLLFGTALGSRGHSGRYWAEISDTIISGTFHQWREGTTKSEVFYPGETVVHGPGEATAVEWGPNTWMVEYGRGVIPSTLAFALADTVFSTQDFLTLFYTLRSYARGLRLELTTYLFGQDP

Dopamine transporter = Dopamine transporter (Homo sapiens, UniProt Q01959); assay: Receptor binding panel: Dopamine transporter
Dopamine transporter, sequence (Q01959 whole entry): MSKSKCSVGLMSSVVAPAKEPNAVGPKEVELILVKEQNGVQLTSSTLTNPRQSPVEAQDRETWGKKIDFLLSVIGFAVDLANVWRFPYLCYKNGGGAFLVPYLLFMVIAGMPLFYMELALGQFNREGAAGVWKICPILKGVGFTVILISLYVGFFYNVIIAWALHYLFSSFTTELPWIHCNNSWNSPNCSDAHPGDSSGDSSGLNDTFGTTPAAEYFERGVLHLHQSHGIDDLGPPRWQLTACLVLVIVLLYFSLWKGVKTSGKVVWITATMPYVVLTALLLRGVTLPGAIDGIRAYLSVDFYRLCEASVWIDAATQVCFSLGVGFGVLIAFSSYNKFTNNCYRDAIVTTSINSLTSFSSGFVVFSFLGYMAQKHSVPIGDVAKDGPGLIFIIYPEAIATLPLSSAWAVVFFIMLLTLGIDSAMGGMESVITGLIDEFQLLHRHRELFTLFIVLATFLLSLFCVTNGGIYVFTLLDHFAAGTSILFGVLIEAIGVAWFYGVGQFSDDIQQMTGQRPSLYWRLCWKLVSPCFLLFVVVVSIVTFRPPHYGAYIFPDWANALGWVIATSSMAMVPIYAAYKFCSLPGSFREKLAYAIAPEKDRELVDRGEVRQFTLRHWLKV

α2C-Adrenergic = α2C-Adrenergic (Homo sapiens, UniProt P18825); assay: Receptor binding panel: α2C-Adrenergic
α2C-Adrenergic, sequence (P18825 whole entry): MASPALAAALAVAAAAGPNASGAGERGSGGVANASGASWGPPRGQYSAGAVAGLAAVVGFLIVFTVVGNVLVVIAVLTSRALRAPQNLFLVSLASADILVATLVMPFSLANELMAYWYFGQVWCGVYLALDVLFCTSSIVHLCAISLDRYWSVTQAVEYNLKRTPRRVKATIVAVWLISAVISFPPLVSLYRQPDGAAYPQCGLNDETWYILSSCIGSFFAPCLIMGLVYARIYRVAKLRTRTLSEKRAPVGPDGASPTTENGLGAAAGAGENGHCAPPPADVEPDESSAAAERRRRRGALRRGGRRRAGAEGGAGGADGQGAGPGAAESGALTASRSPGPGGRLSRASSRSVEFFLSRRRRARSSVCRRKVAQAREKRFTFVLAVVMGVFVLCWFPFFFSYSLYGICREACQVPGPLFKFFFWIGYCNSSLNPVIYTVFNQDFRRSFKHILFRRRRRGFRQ

PAF = PAF (Homo sapiens, UniProt P25105); assay: Receptor binding panel: PAF
PAF, sequence (P25105 whole entry): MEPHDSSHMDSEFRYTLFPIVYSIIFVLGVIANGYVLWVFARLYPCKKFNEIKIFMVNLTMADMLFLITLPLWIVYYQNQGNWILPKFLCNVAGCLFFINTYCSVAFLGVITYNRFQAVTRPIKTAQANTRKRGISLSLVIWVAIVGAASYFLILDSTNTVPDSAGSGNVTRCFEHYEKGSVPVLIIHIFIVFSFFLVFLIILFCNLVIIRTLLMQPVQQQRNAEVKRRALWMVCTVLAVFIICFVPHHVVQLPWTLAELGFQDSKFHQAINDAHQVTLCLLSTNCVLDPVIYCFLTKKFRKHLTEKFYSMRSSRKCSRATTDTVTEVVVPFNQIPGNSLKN

[3] = tested on: Glutamate (NMDA agonist site); assay: Receptor binding panel: Glutamate (NMDA agonist site)
α2B-Adrenergic = α2B-Adrenergic (Homo sapiens, UniProt P18089); assay: Receptor binding panel: α2B-Adrenergic
α2B-Adrenergic, sequence (P18089 whole entry): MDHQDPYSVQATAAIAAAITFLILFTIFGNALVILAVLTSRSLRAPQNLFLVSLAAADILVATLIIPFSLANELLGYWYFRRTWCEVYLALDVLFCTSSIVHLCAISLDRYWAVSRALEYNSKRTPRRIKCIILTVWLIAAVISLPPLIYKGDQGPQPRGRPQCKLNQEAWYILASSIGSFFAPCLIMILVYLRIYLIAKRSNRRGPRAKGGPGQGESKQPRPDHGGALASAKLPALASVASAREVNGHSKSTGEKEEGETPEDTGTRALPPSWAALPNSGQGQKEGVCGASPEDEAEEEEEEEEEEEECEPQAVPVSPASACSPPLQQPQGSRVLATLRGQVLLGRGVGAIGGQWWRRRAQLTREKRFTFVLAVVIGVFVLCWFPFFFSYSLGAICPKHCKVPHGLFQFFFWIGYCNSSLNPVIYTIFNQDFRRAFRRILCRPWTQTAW

Melatonin MT1 = Melatonin MT1 (Homo sapiens, UniProt P48039); assay: Receptor binding panel: Melatonin MT1
Bradykinin B2 = Bradykinin B2 (Homo sapiens, UniProt P30411); assay: Receptor binding panel: Bradykinin B2
Bradykinin B2, sequence (P30411 whole entry): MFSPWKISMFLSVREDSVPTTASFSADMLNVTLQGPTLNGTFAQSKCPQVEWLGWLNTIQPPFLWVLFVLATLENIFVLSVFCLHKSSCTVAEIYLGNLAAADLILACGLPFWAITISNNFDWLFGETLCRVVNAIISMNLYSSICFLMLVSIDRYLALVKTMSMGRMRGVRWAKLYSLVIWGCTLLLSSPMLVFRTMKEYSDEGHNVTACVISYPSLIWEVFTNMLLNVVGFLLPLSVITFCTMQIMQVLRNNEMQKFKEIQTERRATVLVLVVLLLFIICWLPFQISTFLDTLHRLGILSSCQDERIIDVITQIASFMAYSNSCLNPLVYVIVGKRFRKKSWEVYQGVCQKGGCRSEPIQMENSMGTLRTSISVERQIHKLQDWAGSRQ

Vasopressin V1B, sequence (P47901 whole entry): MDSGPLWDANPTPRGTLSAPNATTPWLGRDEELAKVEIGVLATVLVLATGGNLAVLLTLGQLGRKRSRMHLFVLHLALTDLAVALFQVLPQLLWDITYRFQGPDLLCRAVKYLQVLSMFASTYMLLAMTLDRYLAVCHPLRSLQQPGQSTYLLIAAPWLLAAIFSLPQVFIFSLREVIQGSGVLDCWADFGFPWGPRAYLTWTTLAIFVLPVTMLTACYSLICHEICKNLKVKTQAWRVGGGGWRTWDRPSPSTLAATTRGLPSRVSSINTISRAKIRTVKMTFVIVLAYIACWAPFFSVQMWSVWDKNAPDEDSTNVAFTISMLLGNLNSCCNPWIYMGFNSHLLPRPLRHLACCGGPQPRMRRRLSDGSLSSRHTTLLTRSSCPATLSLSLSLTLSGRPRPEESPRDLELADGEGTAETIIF

## CN(CCSc1cc(F)c(OCC(N)=O)c(F)c1)S(=O)(=O)c1ccccc1 [K-2, {4-[2-(benzenesulfonyl-methyl-amino)-ethylsulfanil]-2,6-difluoro-phenoxy}-acetamide]
Vasopressin V1B
  inhibition at 0.1 µM: 1.48%
Neurokinin NK3
  inhibition at 0.1 µM: 0%
Na channel site 2
  Inhibition (%): 11.15%
Neurokinin NK1
  inhibition at 0.1 µM: 0%
[1]
  inhibition at 0.1 µM: 0%
Serotonin transporter
  inhibition at 0.1 µM: 0.17%
Dopamine D2 short
  inhibition at 0.1 µM: 5.33%
Neurokinin NK2
  inhibition at 0.1 µM: 0.61%
[2]
  Inhibition (%): 0.64%
Estrogen
  Inhibition (%): 2.83%
VIP 1
  inhibition at 0.1 µM: 0%
Sigma σ1
  inhibition at 0.1 µM: 2.88%
Dopamine transporter
  inhibition at 0.1 µM: 0.29%
α2C-Adrenergic
  inhibition at 0.1 µM: 5.82%
PAF
  inhibition at 0.1 µM: 0%
[3]
  Inhibition (%): 0.57%
α2B-Adrenergic
  inhibition at 0.1 µM: 5.83%
Melatonin MT1
  inhibition at 0.1 µM: 0.11%
Bradykinin B2
  inhibition at 0.1 µM: 10.3%
